According to PubChem BioAssay (NCI):
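1) Cells in 96-well plates. 2) Compound, 48 h, 5 concentrations. 3) Linear interpolation between surrounding doses. 4) Unreached endpoint = highest concentration. Abbreviation: GI50, concentration required for 50% inhibition of growth. Definition used: TGI = concentration required for complete inhibition of growth.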

Columns and labels:
Experiment in all cases: NCI tumour cell line growth inhibition, 48 h
NCI-H226 lung = system: NCI-H226 lung
NCI-H23 lung = system: NCI-H23 lung
NCI-H460 lung = system: NCI-H460 lung
NCI-H522 lung = system: NCI-H522 lung
NCI/ADR-RES ovarian = system: NCI/ADR-RES ovarian
OVCAR-3 ovarian = system: OVCAR-3 ovarian
OVCAR-4 ovarian = system: OVCAR-4 ovarian
OVCAR-5 ovarian = system: OVCAR-5 ovarian
OVCAR-8 ovarian = system: OVCAR-8 ovarian
PC-3 prostate = system: PC-3 prostate
RPMI-8226 leukemia = system: RPMI-8226 leukemia
RXF 393 renal = system: RXF 393 renal
SF-268 CNS = system: SF-268 CNS
SF-295 CNS = system: SF-295 CNS
SF-539 CNS = system: SF-539 CNS
SK-MEL-2 melanoma = system: SK-MEL-2 melanoma
SK-MEL-28 melanoma = system: SK-MEL-28 melanoma
SK-MEL-5 melanoma = system: SK-MEL-5 melanoma
SK-OV-3 ovarian = system: SK-OV-3 ovarian
SN12C renal = system: SN12C renal
SNB-19 CNS = system: SNB-19 CNS
SNB-75 CNS = system: SNB-75 CNS
SW-620 colon = system: SW-620 colon
T-47D breast = system: T-47D breast
TK-10 renal = system: TK-10 renal
U251 CNS = system: U251 CNS
UACC-257 melanoma = system: UACC-257 melanoma
UACC-62 melanoma = system: UACC-62 melanoma
UO-31 renal = system: UO-31 renal

## CCOc1nccc2c1nc(-c1nonc1N)n2CC
NCI-H226 lung
  TGI: > 25 µM
NCI-H23 lung
  GI50: > 25 µM
  TGI: > 25 µM
NCI-H460 lung
  GI50: > 25 µM
  TGI: > 25 µM
NCI-H522 lung
  GI50: 24.7 µM
  TGI: > 25 µM
NCI/ADR-RES ovarian
  GI50: > 25 µM
  TGI: > 25 µM
OVCAR-3 ovarian
  GI50: > 25 µM
  TGI: > 25 µM
OVCAR-4 ovarian
  GI50: > 25 µM
  TGI: > 25 µM
OVCAR-5 ovarian
  GI50: > 25 µM
  TGI: > 25 µM
OVCAR-8 ovarian
  GI50: > 25 µM
  TGI: > 25 µM
PC-3 prostate
  GI50: > 25 µM
  TGI: > 25 µM
RPMI-8226 leukemia
  GI50: > 25 µM
  TGI: > 25 µM
RXF 393 renal
  GI50: > 25 µM
  TGI: > 25 µM
SF-268 CNS
  GI50: > 25 µM
  TGI: > 25 µM
SF-295 CNS
  GI50: > 25 µM
  TGI: > 25 µM
SF-539 CNS
  GI50: > 25 µM
  TGI: > 25 µM
SK-MEL-2 melanoma
  GI50: > 25 µM
  TGI: > 25 µM
SK-MEL-28 melanoma
  GI50: > 25 µM
  TGI: > 25 µM
SK-MEL-5 melanoma
  GI50: > 25 µM
  TGI: > 25 µM
SK-OV-3 ovarian
  GI50: > 25 µM
  TGI: > 25 µM
SN12C renal
  GI50: > 25 µM
  TGI: > 25 µM
SNB-19 CNS
  GI50: > 25 µM
  TGI: > 25 µM
SNB-75 CNS
  GI50: 16.2 µM
  TGI: > 25 µM
SW-620 colon
  GI50: > 25 µM
  TGI: > 25 µM
T-47D breast
  GI50: > 25 µM
  TGI: > 25 µM
TK-10 renal
  GI50: > 25 µM
  TGI: > 25 µM
U251 CNS
  GI50: > 25 µM
  TGI: > 25 µM
UACC-257 melanoma
  GI50: > 25 µM
  TGI: > 25 µM
UACC-62 melanoma
  GI50: > 25 µM
  TGI: > 25 µM
UO-31 renal
  GI50: > 18.4 µM
  TGI: > 25 µM
